Source: DBAASP
In brackets after ≈: the same amount, converted by molar mass.

Tests used:
Assay in all cases: ≥ marks a high value that may be exact or a test limit, other limits are often not marked, values filed in µg/mL are converted to µM
[1] = tested on: Bacillus cereus NCLM 2156
[2] = tested on: Escherichia coli NCLM 2064
[3] = tested on: Pseudomonas aeruginosa ATCC 10145
[4] = tested on: Staphylococcus aureus ATCC 25923
Vibrio cholerae PL91 = tested on: Vibrio cholerae PL91
Escherichia coli D31 = tested on: Escherichia coli D31
[5] = tested on: Listeria fleischmannii DSM 24998
Listeria grayi DSM 20601 = tested on: Listeria grayi DSM 20601
[6] = tested on: Listeria monocytogenes DSM 20600
[7] = tested on: Micrococcus luteus DSM 20030
[8] = tested on: Staphylococcus aureus DSM 2569
[9] = tested on: Acinetobacter baumannii ATCC 15308
Citrobacter sp. = tested on: Citrobacter sp.
Enterobacter cloacae = tested on: Enterobacter cloacae
[10] = tested on: Escherichia coli ATCC 25922
Klebsiella pneumoniae = tested on: Klebsiella pneumoniae
[11] = tested on: Pseudomonas aeruginosa ATCC 15442
Staphylococcus aureus = tested on: Staphylococcus aureus
Streptococcus pneumoniae = tested on: Streptococcus pneumoniae
[12] = tested on: Acinetobacter baumannii CCARM 12035
[13] = tested on: Acinetobacter baumannii CCARM 12036
[14] = tested on: Acinetobacter baumannii KCTC 2508
[15] = tested on: Bacillus subtilis KCTC 3028
[16] = tested on: Escherichia coli CCARM 1229
[17] = tested on: Escherichia coli CCARM 1238
[18] = tested on: Escherichia coli KCTC 1682
[19] = tested on: Pseudomonas aeruginosa CCARM 2002
[20] = tested on: Pseudomonas aeruginosa CCARM 2095
[21] = tested on: Pseudomonas aeruginosa KCTC 1637
[22] = tested on: Salmonella typhimurium CCARM 8003
[23] = tested on: Salmonella typhimurium CCARM 8007
[24] = tested on: Salmonella typhimurium KCTC 1926
[25] = tested on: Staphylococcus aureus CCARM 3089
[26] = tested on: Staphylococcus aureus CCARM 3108
[27] = tested on: Staphylococcus aureus CCARM 3126
[28] = tested on: Staphylococcus aureus KCTC 1621
[29] = tested on: Staphylococcus epidermidis KCTC 1917

With `CC[C@H](C)[C@H](NC(=O)[C@H](CCCCN)NC(=O)[C@@H](NC(=O)[C@H](CC(C)C)NC(=O)[C@@H]1CCCN1C(=O)CNC(=O)[C@H](Cc1ccccc1)NC(=O)[C@@H](N)Cc1ccccc1)[C@@H](C)CC)C(=O)N[C@@H](C)C(=O)N[C@H](C(=O)NCC(=O)N[C@H](C(=O)N[C@@H](CC(C)C)C(=O)N1CCC[C@H]1C(=O)N[C@@H](CC(N)=O)C(=O)N[C@@H](CC(C)C)C(=O)N[C@H](C(=O)N[C@H]1CSSC[C@@H](C(=O)O)NC(=O)[C@H](CCCCN)NC(=O)CNC(=O)[C@H](CC(C)C)NC(=O)[C@H](C)NC(=O)[C@H](CCCCN)NC1=O)[C@@H](C)CC)C(C)C)[C@@H](C)O` [FFGPLIKIATGVLPNLICKALGKC] the MIC [1] was no less than 39.7 µM, the MIC [2] was 11.9 µM (≈ 30 µg/mL) and the MIC [3] was no less than 59.6 µM. For the same compound, the MIC [4] was greater than 59.6 µM and the MIC (Vibrio cholerae PL91) was no less than 59.6 µM.

For `CC[C@H](C)[C@H](NC(=O)CNC(=O)[C@H](CO)NC(=O)[C@H](CC(C)C)NC(=O)[C@H](CC(C)C)NC(=O)[C@H](C)NC(=O)[C@H](CO)NC(=O)[C@H](Cc1ccccc1)NC(=O)[C@@H](N)Cc1ccccc1)C(=O)N[C@@H](CCCCN)C(=O)N[C@@H](CO)C(=O)N[C@@H](CC(C)C)C(=O)N[C@@H](Cc1ccccc1)C(N)=O` [FFSALLSGIKSLF], the MIC (Escherichia coli D31) was 8 µM (≈ 11.4 µg/mL), the MIC [5] was 4 µM (≈ 5.71 µg/mL) and the MIC (Listeria grayi DSM 20601) was 15 µM (≈ 21.4 µg/mL). The MIC [6] was 8 µM (≈ 11.4 µg/mL), the MIC [7] was 8 µM (≈ 11.4 µg/mL) and the MIC [8] was 15 µM (≈ 21.4 µg/mL).

`CC[C@H](C)[C@H](NC(=O)[C@H](CC(C)C)NC(=O)CNC(=O)CNC(=O)[C@H](CC(C)C)NC(=O)[C@@H](N)Cc1ccccc1)C(=O)N[C@@H](CCCCN)C(=O)N[C@@H](CCCCN)C(=O)N[C@@H](Cc1c[nH]c2ccccc12)C(=O)N1CCC[C@H]1C(=O)N[C@@H](Cc1c[nH]c2ccccc12)C(=O)N[C@@H](Cc1c[nH]c2ccccc12)C(=O)N1CCC[C@H]1C(=O)N[C@@H](Cc1c[nH]c2ccccc12)C(=O)N[C@@H](CCCN=C(N)N)C(=O)N[C@@H](CCCN=C(N)N)C(N)=O` [FLGGLIKKWPWWPWRR] gave an MIC [9] of 14.7 µM (≈ 31.2 µg/mL), an MIC (Citrobacter sp.) of no less than 118 µM and an MIC (Enterobacter cloacae) of no less than 118 µM. The MIC [10] was 3.67 µM (≈ 7.81 µg/mL), the MIC (Klebsiella pneumoniae) was greater than 118 µM and the MIC [11] was 14.7 µM (≈ 31.2 µg/mL). The MIC [4] was 3.67 µM (≈ 7.81 µg/mL), the MIC (Staphylococcus aureus) was 3.67 µM (≈ 7.81 µg/mL) and the MIC (Streptococcus pneumoniae) was 3.67 µM (≈ 7.81 µg/mL).

`CC[C@H](C)[C@H](NC(=O)[C@H](C)NC(=O)[C@H](CCC(=O)O)NC(=O)[C@H](Cc1cnc[nH]1)NC(=O)[C@@H](NC(=O)[C@@H]1CCCN1C(=O)[C@H](CCC(N)=O)NC(=O)[C@H](Cc1ccccc1)NC(=O)[C@@H](NC(=O)[C@H](CCCCN)NC(=O)[C@H](CCCCN)NC(=O)[C@H](CC(C)C)NC(=O)[C@H](C)NC(=O)[C@H](CC(N)=O)NC(=O)[C@H](CC(C)C)NC(=O)CN)C(C)C)[C@@H](C)CC)C(=O)N[C@@H](CCCCN)C(=O)N[C@@H](CCCCN)C(=O)N[C@H](C(=O)N[C@@H](CC(N)=O)C(=O)N[C@@H](CC(N)=O)C(=O)N[C@@H](Cc1cnc[nH]1)C(=O)N[C@H](C(=O)N[C@@H](CCC(N)=O)C(=O)O)C(C)C)[C@@H](C)CC` [GLNALKKVFQPIHEAIKKINNHVQ] showed an MIC [12] of 16 µM (≈ 43.8 µg/mL), an MIC [13] of 16 µM (≈ 43.8 µg/mL) and an MIC [14] of 16 µM (≈ 43.8 µg/mL). The MIC [15] was no less than 64 µM, the MIC [16] was no less than 32 µM and the MIC [17] was 16 µM (≈ 43.8 µg/mL). For the same compound, the MIC [18] was 16 µM (≈ 43.8 µg/mL), the MIC [19] was 16 µM (≈ 43.8 µg/mL) and the MIC [20] was 16 µM (≈ 43.8 µg/mL). It also gave an MIC [21] of 8 µM (≈ 21.9 µg/mL), an MIC [22] of 16 µM (≈ 43.8 µg/mL) and an MIC [23] of 16 µM (≈ 43.8 µg/mL). For the same compound, the MIC [24] was 16 µM (≈ 43.8 µg/mL), the MIC [25] was no less than 64 µM and the MIC [26] was no less than 64 µM. For the same compound, the MIC [27] was no less than 64 µM, the MIC [28] was no less than 64 µM and the MIC [29] was no less than 64 µM.
